The source of these data is patent publication US9050341B2, “Methods of treating drug resistant and other tumors by administering 6,7-dialkoxy quinazoline derivatives” (NATCO PHARMA LIMITED, priority 2009, dated 2015).

Each structure is given as a SMILES string.

The nature of data set [1]: Toxicokinetics in the 30 day repeated dose study in beagle dogs. Type of data set: in vivo. The procedure:
The 30 day repeated dose study employed 12 male and 12 female dogs (Marshall's Farm, China). The dogs were acclimatized for a minimum period of 2 weeks and randomly divided into four main groups (G1-G4), each group comprising of 3 dogs per sex. The animals were dosed orally with capsules of NRC-2694A for a period of 30 consecutive days at dose levels of 10 mg/kg b.wt/day (G2-low dose), 20 mg/kg b.wt/day (G3-mid dose) and 40 mg/kg b.wt/day (G4-high dose). […] The control group (G1-0 mg/kg b. wt/day) animals were dosed by oral capsule with placebo.
The study also tracked body weight (weekly), food consumption (daily), opthalmological status (start and end), hematological and biochemical analyses (start and end), toxicokinetics analysis of plasma (start and end). At the end of the study, all dogs were euthanized by a humane and accepted procedure, subjected to a gross post-mortem examination, organ weights (absolute and relative) were determined, and histopathological examination was carried out.
The toxicokinetic parameters viz.

A further data set concerns the target T1, ABL1 (Homo sapiens, UniProt P00519).
T1 construct: host or cells: E. coli host derived from BL21 (T7 phage lysate)
The experiment in a line: KinomeScan kinase profiling. The data set is classed as binding. From the text: (§1) The kinases were ABL1(F317L), ABL1(H396P), ABL1(Q252H), ABL1(Y253F), ADCK3, ADCK4, ALK, ARK5, AXL, BLK, BRSK2, CDK7, CIT, CLK4, CSNK1D, CSNK1E, DAPK1, DAPK3, DCAMKL3, DMPK, EGFR, EGFR(E746-A750DEL), EGFR(G719C), EGFR(G719S), EGFR(L747-E749DEL, A750P), EGFR(L747-S752 DEL, P753S), EGFR(L747-T751DEL, Sin), EGFR(L858R), EGFR(L861Q), EGFR(S752-I759DEL), EPHA5, EPHA6, ERBB2, ERBB4, ERK3, ERK4, FGR, FLT3(D835H), FLT3(D835Y), FLT3(ITD), FLT3(N841 I), FRK, GAK, GCN2(KIN.DOM.2, S808G), HCK, IRAK3, JAK1(KIN.DOM.1), KIT, KIT(D816V), KIT(V559D), KIT(V559D,T670I), LCK, LOK, LTK, LYN, MAP3K3, MAP4K4, MAP4K5, MET, MINK, MKNK1, MKNK2, MST4, MYLK2, PDGFRB, PIM3, PKN2, PRKD1, PRKD2, PRKD3, PRKG1, RIPK2, RPS6KA4(KIN.DOM.2), SIK2, SLK, SNARK, SRC, STK36, TNIK, TNNI3K, TYK2(KIN.DOM.2).
(§2) Kinase assays: Assays were performed as described in Fabian et al. (2005) Nature Biotechnology, vol. 23, p. 329. Kinase-tagged T7 phage strains were grown in parallel in 24 or 96-well blocks in an E. coli host derived from the BL21 strain. E. coli were grown to log-phase and infected with T7 phage from a frozen stock (multiplicity of infection ˜0.1) and incubated with shaking at 32° C. until lysis (˜90 minutes). The lysates were centrifuged and filtered to remove cell debris. […] The liganded beads were blocked with excess biotin and washed with blocking buffer (SeaBlock (Pierce), 1% BSA, 0.05% Tween 20, 1 mM DTT) to remove unbound ligand and to reduce non-specific phage binding.
(§3) Test compounds were prepared as 40× stocks in DMSO and diluted into the aqueous environment. 2.5% DMSO was added to control assays lacking a test compound. All reactions were performed in polystyrene 96-well plates that had been pretreated with blocking buffer in a final volume of 0.04 ml. […] The phage titer in the eluates was measured by quantitative PCR.

A further data set addresses T2, ACVR1 (Homo sapiens, UniProt Q04771).
T2 construct: host or cells: E. coli host derived from BL21 (T7 phage lysate)
In words: KinomeScan kinase profiling. The data set is classed as binding.
Text: as §1, §2, §3

In a further data set the target is T3, CAMK1 (Homo sapiens, UniProt Q14012).
T3 construct: purchased Ambit Biosciences Corp (KinomeScan); host or cells: E. coli host derived from the BL21 strain, T7 phage
T3 sequence (Q14012 whole entry): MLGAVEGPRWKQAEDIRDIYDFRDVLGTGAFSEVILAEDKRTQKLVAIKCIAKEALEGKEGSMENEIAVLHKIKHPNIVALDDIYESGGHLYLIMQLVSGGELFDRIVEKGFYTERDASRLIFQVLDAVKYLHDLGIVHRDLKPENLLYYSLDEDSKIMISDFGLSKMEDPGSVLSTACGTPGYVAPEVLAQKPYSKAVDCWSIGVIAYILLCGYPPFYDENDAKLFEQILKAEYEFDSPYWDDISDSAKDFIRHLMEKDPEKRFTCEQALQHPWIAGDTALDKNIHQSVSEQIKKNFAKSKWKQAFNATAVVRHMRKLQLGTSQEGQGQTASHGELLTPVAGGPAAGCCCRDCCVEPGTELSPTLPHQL
In words: KinomeScan kinase profiling. Type of data set: binding.
Text: as §1, §2, §3

The target in the next data set is T4, CAMK2D (Homo sapiens, UniProt Q13557).
T4 construct: purchased Ambit Biosciences Corp (KinomeScan); host or cells: E. coli host derived from the BL21 strain, T7 phage
The experiment in a line: KinomeScan kinase profiling. The data set is classed as binding.
Text: as §1, §2, §3

In another data set the target is T5, CSNK2A1 (Homo sapiens, UniProt P68400).
T5 construct: purchased Ambit Biosciences Corp (KinomeScan); host or cells: T7 phage in E. coli host derived from BL21
T5 sequence (P68400 whole entry): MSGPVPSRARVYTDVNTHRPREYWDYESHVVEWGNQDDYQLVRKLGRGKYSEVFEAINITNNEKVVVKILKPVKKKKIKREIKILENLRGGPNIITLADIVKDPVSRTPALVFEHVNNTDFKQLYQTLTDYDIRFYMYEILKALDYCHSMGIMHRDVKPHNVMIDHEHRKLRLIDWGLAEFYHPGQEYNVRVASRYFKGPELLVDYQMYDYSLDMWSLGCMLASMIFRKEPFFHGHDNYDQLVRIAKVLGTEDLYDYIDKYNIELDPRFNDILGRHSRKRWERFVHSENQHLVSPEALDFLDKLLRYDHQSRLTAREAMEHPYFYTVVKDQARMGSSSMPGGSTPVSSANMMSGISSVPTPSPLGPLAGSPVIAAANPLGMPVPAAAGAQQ
In words: KinomeScan kinase profiling. Type of data set: binding.
Text: as §1, §2, §3

The target of a further data set is T6, CSNK2A2 (Homo sapiens, UniProt P19784).
T6 construct: purchased Ambit Biosciences Corp (KinomeScan); host or cells: T7 phage in E. coli host derived from BL21
T6 sequence (P19784 whole entry): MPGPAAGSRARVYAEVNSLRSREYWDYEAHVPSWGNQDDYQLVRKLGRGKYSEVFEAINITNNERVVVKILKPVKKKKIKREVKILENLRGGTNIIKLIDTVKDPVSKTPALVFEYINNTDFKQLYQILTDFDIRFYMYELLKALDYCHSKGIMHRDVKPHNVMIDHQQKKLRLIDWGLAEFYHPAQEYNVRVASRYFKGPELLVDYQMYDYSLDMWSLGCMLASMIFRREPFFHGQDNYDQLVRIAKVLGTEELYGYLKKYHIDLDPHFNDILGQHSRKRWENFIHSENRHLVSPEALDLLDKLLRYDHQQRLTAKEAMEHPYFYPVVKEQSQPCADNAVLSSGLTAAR
The experiment in a line: KinomeScan kinase profiling. The data set is classed as binding.
Text: as §1, §2, §3

A further data set has as its target T7, DCAMKL3 (Homo sapiens, UniProt Q9C098).
T7 construct: purchased Ambit Biosciences Corp (KinomeScan); host or cells: T7 phage in E. coli host derived from BL21
In words: KinomeScan kinase profiling. Type of data set: binding.
Text: as §1, §2, §3

A further data set has as its target T8, EGFR (L858R) (Homo sapiens, UniProt P00533, L858R).
T8 construct: host or cells: E. coli host derived from BL21, T7 phage lysate
In words: KinomeScan kinase profiling. Type of data set: binding.
Text: as §1, §2, §3

The target in a further data set is T9, SRMS (Homo sapiens, UniProt Q9H3Y6).
T9 construct: host or cells: E. coli host derived from the BL21 strain, T7 phage lysate
T9 sequence (Q9H3Y6 whole entry): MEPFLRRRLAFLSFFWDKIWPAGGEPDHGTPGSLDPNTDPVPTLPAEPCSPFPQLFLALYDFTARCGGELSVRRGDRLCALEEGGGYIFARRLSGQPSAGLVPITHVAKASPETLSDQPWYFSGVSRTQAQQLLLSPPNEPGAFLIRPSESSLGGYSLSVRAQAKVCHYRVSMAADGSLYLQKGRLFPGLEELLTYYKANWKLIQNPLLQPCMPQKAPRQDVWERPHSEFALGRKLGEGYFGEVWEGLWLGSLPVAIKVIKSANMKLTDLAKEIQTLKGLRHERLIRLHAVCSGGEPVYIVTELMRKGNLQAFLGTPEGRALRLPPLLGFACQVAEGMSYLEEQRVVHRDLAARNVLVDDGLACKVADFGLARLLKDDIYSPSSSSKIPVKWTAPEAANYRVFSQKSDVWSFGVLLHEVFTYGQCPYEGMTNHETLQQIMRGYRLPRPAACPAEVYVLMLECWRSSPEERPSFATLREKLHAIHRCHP
The experiment in a line: KinomeScan kinase profiling. The data set is classed as binding.
Text: as §1, §2, §3

The next data set addresses T10, SRPK2 (Homo sapiens, UniProt P78362).
T10 construct: host or cells: E. coli host derived from the BL21 strain, T7 phage lysate
In words: KinomeScan kinase profiling. Type of data set: binding.
Text: as §1, §2, §3

In data set [2] the target is T11, TYK2 (JH1domain-catalytic) (Homo sapiens, UniProt P29597).
T11 construct: TYK2 (JH1domain-catalytic); purchased Ambit Biosciences Corp (KinomeScan); host or cells: E. coli host derived from the BL21 strain (T7 phage lysate)
The experiment in a line: KinomeScan kinase profiling. The data set is classed as binding.
Text: as §1, §2, §3

Another data set concerns the target T12, ABL1 (T315I) (Homo sapiens, UniProt P00519, T315I).
T12 construct: host or cells: E. coli host derived from BL21 (T7 phage lysate)
The experiment in a line: KinomeScan kinase profiling. The data set is classed as binding.

The next data set addresses T13, CSNK1G3 (Homo sapiens, UniProt Q9Y6M4).
T13 construct: purchased Ambit Biosciences Corp (KinomeScan); host or cells: T7 phage in E. coli host derived from BL21
The experiment in a line: KinomeScan kinase profiling. The data set is classed as binding.

The target of a further data set is T14, PKAC-beta (Homo sapiens, UniProt P22694).
T14 construct: purchased Ambit Biosciences Corp (KinomeScan); host or cells: E. coli host derived from BL21, infected with T7 phage
In words: KinomeScan kinase profiling. The data set is classed as binding.

Another data set addresses T15, ROS1 (Homo sapiens, UniProt P08922).
T15 construct: host or cells: E. coli host derived from BL21, T7 phage lysate
The experiment in a line: KinomeScan kinase profiling. The data set is classed as binding.

T13 sequence (Q9Y6M4 whole entry): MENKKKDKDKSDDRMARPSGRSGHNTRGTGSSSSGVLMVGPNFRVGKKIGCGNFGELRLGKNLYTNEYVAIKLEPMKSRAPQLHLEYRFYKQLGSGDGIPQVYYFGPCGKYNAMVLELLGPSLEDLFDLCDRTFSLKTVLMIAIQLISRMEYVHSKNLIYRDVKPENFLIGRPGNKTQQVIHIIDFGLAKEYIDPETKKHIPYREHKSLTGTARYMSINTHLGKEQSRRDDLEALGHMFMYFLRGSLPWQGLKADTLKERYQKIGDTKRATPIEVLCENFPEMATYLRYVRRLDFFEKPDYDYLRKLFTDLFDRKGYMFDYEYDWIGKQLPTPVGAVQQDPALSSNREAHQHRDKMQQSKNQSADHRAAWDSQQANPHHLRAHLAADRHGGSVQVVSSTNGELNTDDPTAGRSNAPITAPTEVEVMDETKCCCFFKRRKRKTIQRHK
T15 sequence (P08922 28-2347): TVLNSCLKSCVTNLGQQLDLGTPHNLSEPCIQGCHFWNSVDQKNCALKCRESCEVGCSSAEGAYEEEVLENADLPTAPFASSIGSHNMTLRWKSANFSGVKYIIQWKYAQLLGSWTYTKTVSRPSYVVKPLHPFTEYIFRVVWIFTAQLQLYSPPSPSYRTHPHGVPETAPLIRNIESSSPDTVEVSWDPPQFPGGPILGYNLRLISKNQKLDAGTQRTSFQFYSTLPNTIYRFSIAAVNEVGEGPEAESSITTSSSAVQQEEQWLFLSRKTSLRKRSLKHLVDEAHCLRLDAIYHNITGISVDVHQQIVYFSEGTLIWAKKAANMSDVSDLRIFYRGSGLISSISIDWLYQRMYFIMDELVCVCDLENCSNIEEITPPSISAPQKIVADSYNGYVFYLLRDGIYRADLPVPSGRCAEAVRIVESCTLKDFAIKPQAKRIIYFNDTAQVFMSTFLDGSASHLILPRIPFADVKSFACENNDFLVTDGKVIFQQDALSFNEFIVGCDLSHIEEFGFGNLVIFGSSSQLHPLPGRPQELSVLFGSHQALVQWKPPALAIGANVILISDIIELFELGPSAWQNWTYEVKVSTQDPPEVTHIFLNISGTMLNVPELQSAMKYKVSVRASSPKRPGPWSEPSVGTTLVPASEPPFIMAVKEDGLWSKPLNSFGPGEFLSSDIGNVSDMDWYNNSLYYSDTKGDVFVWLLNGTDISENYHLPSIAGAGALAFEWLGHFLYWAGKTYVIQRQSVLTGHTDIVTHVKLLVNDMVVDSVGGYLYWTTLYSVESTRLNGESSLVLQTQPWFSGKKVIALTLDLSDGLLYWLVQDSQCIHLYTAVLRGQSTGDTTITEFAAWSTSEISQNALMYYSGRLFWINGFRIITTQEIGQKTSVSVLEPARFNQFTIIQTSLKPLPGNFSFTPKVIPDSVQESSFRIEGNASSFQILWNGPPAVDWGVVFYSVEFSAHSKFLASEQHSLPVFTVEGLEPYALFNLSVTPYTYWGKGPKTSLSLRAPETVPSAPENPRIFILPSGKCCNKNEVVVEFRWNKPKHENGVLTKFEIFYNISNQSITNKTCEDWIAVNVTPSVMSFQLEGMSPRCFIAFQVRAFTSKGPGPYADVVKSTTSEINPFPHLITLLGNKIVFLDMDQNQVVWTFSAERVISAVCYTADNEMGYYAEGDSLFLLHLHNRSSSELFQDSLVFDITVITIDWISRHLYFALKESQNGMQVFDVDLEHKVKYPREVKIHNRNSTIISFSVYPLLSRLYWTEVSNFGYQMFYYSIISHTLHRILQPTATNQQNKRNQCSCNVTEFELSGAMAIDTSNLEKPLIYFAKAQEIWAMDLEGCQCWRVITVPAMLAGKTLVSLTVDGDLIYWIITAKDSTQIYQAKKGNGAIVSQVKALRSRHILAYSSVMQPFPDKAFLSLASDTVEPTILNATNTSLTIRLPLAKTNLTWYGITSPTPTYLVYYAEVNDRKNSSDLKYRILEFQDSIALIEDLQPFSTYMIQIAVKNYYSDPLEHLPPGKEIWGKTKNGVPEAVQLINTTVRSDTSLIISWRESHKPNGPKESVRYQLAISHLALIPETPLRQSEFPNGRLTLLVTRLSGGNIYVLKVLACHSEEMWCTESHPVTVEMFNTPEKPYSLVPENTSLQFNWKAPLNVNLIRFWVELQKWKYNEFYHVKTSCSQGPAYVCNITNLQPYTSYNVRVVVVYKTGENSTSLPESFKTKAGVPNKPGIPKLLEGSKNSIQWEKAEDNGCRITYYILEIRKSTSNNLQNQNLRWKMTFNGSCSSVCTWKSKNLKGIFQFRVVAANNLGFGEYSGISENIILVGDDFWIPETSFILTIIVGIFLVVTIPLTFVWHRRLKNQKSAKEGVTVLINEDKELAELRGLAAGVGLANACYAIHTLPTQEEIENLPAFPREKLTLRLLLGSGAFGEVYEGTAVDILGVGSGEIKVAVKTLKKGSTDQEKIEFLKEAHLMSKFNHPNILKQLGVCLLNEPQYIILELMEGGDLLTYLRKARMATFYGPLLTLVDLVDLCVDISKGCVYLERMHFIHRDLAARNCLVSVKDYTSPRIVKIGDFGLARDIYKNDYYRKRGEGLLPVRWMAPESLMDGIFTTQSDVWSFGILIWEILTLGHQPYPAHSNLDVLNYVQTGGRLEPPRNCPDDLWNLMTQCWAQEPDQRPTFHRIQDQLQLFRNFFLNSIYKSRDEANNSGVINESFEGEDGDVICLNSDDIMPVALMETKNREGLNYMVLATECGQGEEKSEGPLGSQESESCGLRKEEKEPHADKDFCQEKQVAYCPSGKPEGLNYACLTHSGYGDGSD
T7 sequence (Q9C098 whole entry): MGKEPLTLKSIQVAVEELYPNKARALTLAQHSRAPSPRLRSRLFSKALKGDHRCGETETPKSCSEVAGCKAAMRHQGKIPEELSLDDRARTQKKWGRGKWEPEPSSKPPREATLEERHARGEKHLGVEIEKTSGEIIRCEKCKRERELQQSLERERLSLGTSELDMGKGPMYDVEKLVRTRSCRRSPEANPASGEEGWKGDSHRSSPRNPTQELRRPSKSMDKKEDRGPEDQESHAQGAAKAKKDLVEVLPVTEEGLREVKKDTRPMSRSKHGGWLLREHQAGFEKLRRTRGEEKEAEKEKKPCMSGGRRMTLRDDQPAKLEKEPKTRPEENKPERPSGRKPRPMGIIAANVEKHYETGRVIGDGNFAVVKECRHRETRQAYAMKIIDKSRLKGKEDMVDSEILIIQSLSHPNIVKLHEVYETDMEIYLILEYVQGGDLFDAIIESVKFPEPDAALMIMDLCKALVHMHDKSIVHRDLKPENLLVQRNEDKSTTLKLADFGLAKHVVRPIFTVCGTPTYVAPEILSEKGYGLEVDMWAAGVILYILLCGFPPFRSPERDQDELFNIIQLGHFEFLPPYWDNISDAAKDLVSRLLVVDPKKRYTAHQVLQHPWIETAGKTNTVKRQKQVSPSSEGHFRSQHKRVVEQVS

In the case of `C#Cc1cccc(Nc2ncnc3cc(OC)c(OCCCN4CCOCC4)cc23)c1.Cl` [NRC-2694 monohydrochloride, N-(3-ethylnylphenyl)-7-methoxy-6-[3-(4-morpholinyl)propoxy]-4-quinazolinamine mono hydrochloride], the “median Tmax” value in [1] (day 1, female dogs, 10 mg/kg oral) stood at 2 h; in data set [1] (day 1, female dogs, 20 mg/kg oral) it was 4 h; in data set [1] (day 1, female dogs, 40 mg/kg oral), 4 h; in data set [1] (day 1, male dogs, 10 mg/kg oral), 2 h; in [1] (day 1, male dogs, 20 mg/kg oral), 3 h; in [1] (day 1, male dogs, 40 mg/kg oral), 2 h. For the same compound, the “median Tmax” value in data set [1] (day 30, female dogs, 10 mg/kg oral) came to 2 h; in [1] (day 30, female dogs, 20 mg/kg oral), 4 h; in data set [1] (day 30, male dogs, 10 mg/kg oral), 2 h; in data set [1] (day 30, male dogs, 20 mg/kg oral), 3 h. Moreover, the “Cmax, dose dependence” value in [1] (three dose levels, male and female dogs) was “dose-dependent change”.
Regarding `C#Cc1cccc(Nc2ncnc3cc(OC)c(OCCCN4CCOCC4)cc23)c1` [NRC-2694, N-(3-ethylnylphenyl)-7-methoxy-6-[3-(4-morpholinyl)propoxy]-4-quinazolinamine], the “% Ctrl @ 10000 nM” value on ABL1 turned out to be 67 % Ctrl; at ACVR1, 61 % Ctrl; at CAMK1, 65 % Ctrl; on CAMK2D, 35 % Ctrl; at CSNK2A1 it was 56 % Ctrl; at CSNK2A2 it was 52 % Ctrl. Besides, the “% Ctrl @ 10000 nM” value at DCAMKL3 was determined as 14 % Ctrl; at EGFR (L858R), 0 % Ctrl; at SRMS, 100 % Ctrl; at SRPK2, 73 % Ctrl; in [2] it was 97 % Ctrl; at ABL1 (T315I), 35 % Ctrl. Moreover, the “% Ctrl @ 10000 nM” value on CSNK1G3 worked out at 61 % Ctrl; on PKAC-beta, 88 % Ctrl; on ROS1, 46 % Ctrl.
